IC50 and Ki data for 18 compounds are collected here from ChEMBL document CHEMBL1909046, “DrugMatrix in vitro pharmacology data”.

As usually defined, the IC50 is the concentration needed to halve the response being measured. Usually Ki stands for the equilibrium dissociation constant of an inhibitor or competing ligand from its target.

Assay [1] is described as follows: DRUGMATRIX: Sodium/nucleoside co-transporter radioligand binding (ligand: nitrobenzylthioinosine). It counts as cell membranes, Cavia porcellus, Dunkin-Hartley, Cerebral cortex, Membrane. Conditions: Not Active = under 50% inhibition at 10 µM.
The nature of assay [2]: DRUGMATRIX: Calcium Channel Type L, Benzothiazepine radioligand binding (ligand: [3H] Diltiazem). Conditions: Not Active = under 50% inhibition at 10 µM. It is filed as cell membranes, Rattus norvegicus, Wistar, Brain, Membrane.
A further assay addresses Melanocortin receptor 4 (Homo sapiens, UniProt P32245). It counts as cell membranes, HEK293, Membrane. To be noted: hek293.
Assay [3] deals with 5-hydroxytryptamine receptor 2B (Homo sapiens, UniProt P41595). It is filed as cell membranes, CHO-K1, Membrane.
A short description of assay [4]: DRUGMATRIX: Atrial Natriuretic Factor (ANF) radioligand binding (ligand: [125I] ANF (rat)). It is filed as cell membranes, Cavia porcellus, Dunkin-Hartley, Adrenal gland, Membrane. Conditions: Not Active = under 50% inhibition at 10 µM.
Assay [5] concerns the target Mitogen-activated protein kinase 3 (Homo sapiens, UniProt P27361). As to the kind of experiment: DRUGMATRIX: Protein Serine/Threonine Kinase, ERK1 enzyme inhibition (substrate: Myelin Basic Protein). Conditions: Not Active = under 50% inhibition at 10 µM. Also noted: species or system Escherichia coli.
The target of assay [6] is T1, Alpha-1D adrenergic receptor (Homo sapiens, UniProt P25100). Note: in other assays of this panel Not Active means under 50% inhibition at 10 µM.
T1 sequence (P25100 whole entry): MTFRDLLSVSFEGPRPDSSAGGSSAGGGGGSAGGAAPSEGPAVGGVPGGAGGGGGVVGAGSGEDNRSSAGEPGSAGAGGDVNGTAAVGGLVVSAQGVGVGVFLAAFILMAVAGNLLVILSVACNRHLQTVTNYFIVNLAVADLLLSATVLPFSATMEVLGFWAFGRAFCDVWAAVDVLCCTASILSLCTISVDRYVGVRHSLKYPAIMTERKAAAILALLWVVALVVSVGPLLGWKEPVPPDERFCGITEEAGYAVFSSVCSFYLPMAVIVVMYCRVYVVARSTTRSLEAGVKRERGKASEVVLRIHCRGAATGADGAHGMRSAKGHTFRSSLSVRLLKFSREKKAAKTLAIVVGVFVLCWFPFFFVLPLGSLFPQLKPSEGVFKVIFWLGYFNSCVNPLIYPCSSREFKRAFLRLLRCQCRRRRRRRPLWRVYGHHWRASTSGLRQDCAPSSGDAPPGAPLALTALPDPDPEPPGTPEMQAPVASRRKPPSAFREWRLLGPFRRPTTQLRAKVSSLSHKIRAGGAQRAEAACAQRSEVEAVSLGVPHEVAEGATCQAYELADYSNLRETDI
It counts as cell membranes, HEK293, Membrane.

Sequence of 5-hydroxytryptamine receptor 2B (P41595 whole entry): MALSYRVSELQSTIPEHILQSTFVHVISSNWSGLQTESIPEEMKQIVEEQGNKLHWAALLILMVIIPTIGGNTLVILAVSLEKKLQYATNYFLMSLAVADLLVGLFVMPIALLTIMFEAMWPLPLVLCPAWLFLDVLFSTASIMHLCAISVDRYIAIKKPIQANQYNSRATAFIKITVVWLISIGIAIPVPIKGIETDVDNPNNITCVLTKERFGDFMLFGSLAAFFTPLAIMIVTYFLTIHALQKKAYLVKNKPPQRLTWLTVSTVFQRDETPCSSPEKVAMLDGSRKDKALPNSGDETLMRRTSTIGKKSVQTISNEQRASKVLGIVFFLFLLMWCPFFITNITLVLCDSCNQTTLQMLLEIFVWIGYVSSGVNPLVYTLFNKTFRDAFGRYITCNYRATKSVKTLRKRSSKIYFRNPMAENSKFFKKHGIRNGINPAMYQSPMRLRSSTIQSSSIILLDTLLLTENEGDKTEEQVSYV
Sequence of Melanocortin receptor 4 (P32245 whole entry): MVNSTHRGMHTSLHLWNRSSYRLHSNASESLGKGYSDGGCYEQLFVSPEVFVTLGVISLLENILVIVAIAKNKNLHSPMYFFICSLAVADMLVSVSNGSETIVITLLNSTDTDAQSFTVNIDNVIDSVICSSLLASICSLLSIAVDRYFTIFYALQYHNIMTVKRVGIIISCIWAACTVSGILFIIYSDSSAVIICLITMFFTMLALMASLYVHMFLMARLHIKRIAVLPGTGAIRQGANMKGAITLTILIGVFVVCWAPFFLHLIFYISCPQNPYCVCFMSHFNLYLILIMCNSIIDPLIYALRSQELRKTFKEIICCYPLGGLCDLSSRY
Sequence of Mitogen-activated protein kinase 3 (P27361 whole entry): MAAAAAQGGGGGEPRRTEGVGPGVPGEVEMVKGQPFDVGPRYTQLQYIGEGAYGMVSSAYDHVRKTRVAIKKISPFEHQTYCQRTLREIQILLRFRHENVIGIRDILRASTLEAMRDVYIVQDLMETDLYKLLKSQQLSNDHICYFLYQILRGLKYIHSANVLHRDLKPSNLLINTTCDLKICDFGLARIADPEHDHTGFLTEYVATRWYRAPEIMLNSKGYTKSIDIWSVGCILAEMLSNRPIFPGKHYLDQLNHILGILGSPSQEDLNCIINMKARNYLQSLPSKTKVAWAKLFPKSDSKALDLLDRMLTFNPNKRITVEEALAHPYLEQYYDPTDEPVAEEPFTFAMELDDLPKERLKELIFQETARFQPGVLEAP

As to `Cc1c(O)c(=O)ccn1C` [DEFERIPRONE], the IC50 result (in assay [1]; in assay [2]; on Melanocortin receptor 4; in assay [3] (cho-k1); in assay [4]; in assay [5]) was “Not Active” each time. Besides, the 50% inhibitory concentration (IC50) entry in assay [6] (hek293) was “Not Active”. The inhibition constant (Ki) entry in assay [1], in assay [2] and in assay [4] was “Not Active” throughout.

On to `CCOc1ccc(NC(C)=O)cc1` [PHENACETIN], for which the IC50 result (in assay [1]; in assay [2]; against Melanocortin receptor 4; in assay [3] (cho-k1); in assay [4]; in assay [5]) was “Not Active” each time. In addition, the IC50 entry in assay [6] (hek293) is reported as “Not Active”. Further, the inhibitory constant (Ki) entry in assay [1], in assay [2] and in assay [4] was “Not Active” in each case.

For the compound `NC1=NC(=O)C(c2ccccc2)O1` (centres undefined) [PEMOLINE], the IC50 result (in assay [1]; in assay [2]; against Melanocortin receptor 4; in assay [3] (cho-k1); in assay [4]; in assay [5]) was “Not Active” throughout. Further, the IC50 result in assay [6] (hek293) was “Not Active”. Besides, the Ki result in assay [1], in assay [2] and in assay [4] was “Not Active” in each case.

In the case of `CN(C)c1nc(N(C)C)nc(N(C)C)n1` [ALTRETAMINE], the IC50 result (in assay [1]; in assay [2]; against Melanocortin receptor 4; in assay [3] (cho-k1); in assay [4]; in assay [5]) was “Not Active” each time. The IC50 entry in assay [6] (hek293) is on record as “Not Active”. Further, the Ki entry in assay [1], in assay [2] and in assay [4] was “Not Active” in each case.

Consider `CCn1cc(C(=O)O)c(=O)c2cc(F)c(N3CCNCC3)cc21` [NORFLOXACIN], for which the IC50 entry (in assay [1]; in assay [2]; at Melanocortin receptor 4; in assay [3] (cho-k1); in assay [4]; in assay [5]) was “Not Active” throughout. Further, the IC50 entry in assay [6] (hek293) is reported as “Not Active”. Besides, the inhibition constant Ki entry in assay [1], in assay [2] and in assay [4] was “Not Active” throughout.

For the compound `Clc1cccc(Cl)c1NC1=NCCN1` [CLONIDINE], the IC50 result (in assay [1]; in assay [2]; against Melanocortin receptor 4; in assay [3] (cho-k1); in assay [4]; in assay [5]) was “Not Active” in each case. For the same compound, the IC50 in assay [6] (read-out: IC50) was determined as 1210 nM. For the same compound, the Ki result in assay [1] is “Not Active”; in assay [2], “Not Active”; in assay [4] it was “Not Active”; in assay [6] (read-out: Ki) it was 595 nM.

Take `C=C(C)C1(O)OC(=O)C=C1OC` (centres undefined) [PENICILLIC ACID]: the IC50 entry (in assay [1]; in assay [2]; at Melanocortin receptor 4; in assay [3] (cho-k1); in assay [4]; in assay [5]) was “Not Active” throughout. The IC50 entry in assay [6] (hek293) is on record as “Not Active”. Besides, the Ki entry in assay [1], in assay [2] and in assay [4] was “Not Active” in each case.

For `C[C@H](CS)C(=O)N1CCC[C@H]1C(=O)O` [CAPTOPRIL], the half-maximal inhibitory concentration (IC50) entry (in assay [1]; in assay [2]; against Melanocortin receptor 4; in assay [3] (cho-k1); in assay [4]; in assay [5]) was “Not Active” in each case. Besides, the half-inhibitory concentration (IC50) entry in assay [6] (hek293) was “Not Active”. Also, the inhibition constant Ki result in assay [1], in assay [2] and in assay [4] was “Not Active” in each case.

As to `C[C@H]1O[C@@H](O[C@H]2[C@@H](O)C[C@H](O[C@H]3[C@@H](O)C[C@H](O[C@H]4CC[C@@]5(C)[C@H](CC[C@@H]6[C@@H]5C[C@@H](O)[C@]5(C)[C@@H](C7=CC(=O)OC7)CC[C@]65O)C4)O[C@@H]3C)O[C@@H]2C)C[C@H](O)[C@@H]1O` [DIGOXIN], the IC50 entry (in assay [1]; in assay [2]; against Melanocortin receptor 4; in assay [3] (cho-k1); in assay [4]; in assay [5]) was “Not Active” in each case. In assay [6] (hek293), the concentration for half-maximal inhibition (IC50) result is given as “Not Active”. For the same compound, the Ki result in assay [1], in assay [2] and in assay [4] was “Not Active” throughout.

`CN(C)C(=O)Oc1cc(OC(=O)N(C)C)cc(C(O)CNC(C)(C)C)c1` (centres undefined) [BAMBUTEROL]: the IC50 entry (in assay [1]; in assay [2]; against Melanocortin receptor 4; in assay [3] (cho-k1); in assay [4]; in assay [5]) was “Not Active” each time. In addition, the concentration for half-maximal inhibition (IC50) entry in assay [6] (hek293) is given as “Not Active”. Also, the Ki result in assay [1], in assay [2] and in assay [4] was “Not Active” throughout.

In the case of `CC(C)[C@H]1C(=O)N2CCC[C@H]2[C@]2(O)O[C@](NC(=O)[C@@H]3C=C4c5cccc6[nH]cc(c56)C[C@H]4N(C)C3)(C(C)C)C(=O)N12` [ERGOCORNINE], the 50% inhibitory concentration (IC50) result in assay [1] was “Not Active”; in assay [2] it was “Not Active”; on Melanocortin receptor 4 it was “Not Active”; in assay [3] (read-out: IC50), 11 nM; in assay [4], “Not Active”; in assay [5], “Not Active”. Also, the half-maximal inhibitory concentration (IC50) in assay [6] (read-out: IC50) was 18 nM. For the same compound, the inhibition constant (Ki) result in assay [1] was “Not Active”; in assay [2], “Not Active”; in assay [3] (read-out: Ki), 6.86 nM; in assay [4], “Not Active”; in assay [6] (read-out: Ki) it was 8.75 nM.

`CN(C)CCCN1c2ccccc2Sc2ccccc21` [PROMAZINE]: the IC50 entry in assay [1] is “Not Active”; in assay [2] (read-out: IC50), 3220 nM; at Melanocortin receptor 4 it was “Not Active”; in assay [3] (read-out: IC50) it was 347 nM; in assay [4] it was “Not Active”; in assay [5], “Not Active”. For the same compound, the IC50 in assay [6] (read-out: IC50) stood at 13 nM. The Ki entry in assay [1] is “Not Active”; in assay [2] (read-out: Ki), 2860 nM; in assay [3] (read-out: Ki) it was 221 nM; in assay [4], “Not Active”; in assay [6] (read-out: Ki), 6.18 nM.

For the compound `C[C@](N)(Cc1ccc(O)c(O)c1)C(=O)O` [METHYLDOPA], the concentration for half-maximal inhibition (IC50) result (in assay [1]; in assay [2]; against Melanocortin receptor 4; in assay [3] (cho-k1); in assay [4]; in assay [5]) was “Not Active” throughout. Further, the IC50 result in assay [6] (hek293) is “Not Active”. In addition, the Ki result in assay [1], in assay [2] and in assay [4] was “Not Active” each time.

Turning to `CCOC(=O)C1=C(COCCN)NC(C)=C(C(=O)OC)C1c1ccccc1Cl` (centres undefined) [AMLODIPINE], the 50% inhibitory concentration (IC50) entry in assay [1] was “Not Active”; in assay [2] (read-out: IC50) it was 101 nM; against Melanocortin receptor 4, “Not Active”; in assay [3] (cho-k1), “Not Active”; in assay [4] it was “Not Active”; in assay [5], “Not Active”. Besides, the IC50 result in assay [6] (hek293) is “Not Active”. The inhibitory constant (Ki) entry is “Not Active” in assay [1], 90 nM in assay [2] (read-out: Ki) and “Not Active” in assay [4].

Take LEAD (II) ACETATE: the IC50 entry (in assay [1]; in assay [2]; against Melanocortin receptor 4; in assay [3] (cho-k1); in assay [4]; in assay [5]) was “Not Active” in each case. The IC50 entry in assay [6] (hek293) was “Not Active”. Moreover, the Ki entry (in assay [1]; in assay [2]; on Melanocortin receptor 4; in assay [3] (cho-k1); in assay [4]; in assay [5]) was “Not Active” throughout. In addition, the inhibition constant Ki result in assay [6] (hek293) is recorded as “Not Active”.

Turning to `CC(O)CO` (centres undefined) [PROPYLENE GLYCOL], the IC50 result (in assay [1]; in assay [2]; against Melanocortin receptor 4; in assay [3] (cho-k1); in assay [4]; in assay [5]) was “Not Active” each time. Also, in assay [6] (hek293), the half-inhibitory concentration (IC50) result was “Not Active”. The Ki entry in assay [1], in assay [2] and in assay [4] was “Not Active” in each case.

Regarding `CCCC1O[C@@H]2C[C@H]3[C@@H]4CCC5=CC(=O)C=C[C@]5(C)[C@H]4[C@@H](O)C[C@]3(C)[C@]2(C(=O)CO)O1` (some centres undefined) [BUDESONIDE], the IC50 entry (in assay [1]; in assay [2]; against Melanocortin receptor 4; in assay [3] (cho-k1); in assay [4]; in assay [5]) was “Not Active” throughout. The IC50 entry in assay [6] (hek293) is given as “Not Active”. Besides, the inhibition constant (Ki) entry in assay [1], in assay [2] and in assay [4] was “Not Active” each time.

As for `CC1Cc2ccccc2N1NC(=O)c1ccc(Cl)c(S(N)(=O)=O)c1` (centres undefined) [INDAPAMIDE], the IC50 result (in assay [1]; in assay [2]; against Melanocortin receptor 4; in assay [3] (cho-k1); in assay [4]; in assay [5]) was “Not Active” throughout. In addition, the IC50 result in assay [6] (hek293) is “Not Active”. The Ki result in assay [1], in assay [2] and in assay [4] was “Not Active” throughout.
